Key:
Experiment in all cases: Ceftazidime MIC with fixed concentration of BLI
Format in all cases: cell-based
[1] = tested on: PAM2005 Pseudomonas aeruginosa ampC
Description: (§1) Next, ceftazidime potentiation activity of several cyclic boronic acid ester derivatives was tested using a larger panel of strains expressing β-lactamase hydrolyzing enzymes. Ceftazidime MICs were determined alone and in the presence of fixed concentrations of various cyclic boronic acid ester derivatives.

[2] = tested on: ec300 Escherichia coli TEM-3; conditions: ec300 TEM-3
Description: as §1

[3] = tested on: EC1010 Escherichia coli CMY-6; conditions: EC1010 CMY-6
Description: as §1

[4] = tested on: ec303 Escherichia coli TEM-12; conditions: ec303 TEM-12
Description: as §1

[5] = tested on: AB1054 Acinetobacter baumannii OXA-23; conditions: AB1054 OXA-23
Description: as §1

[6] = tested on: KX1000 Klebsiella oxytoca OXA-2; conditions: KX1000 OXA-2
Description: as §1

[7] = tested on: KP1005 Klebsiella pneumoniae CTX-M-14; conditions: KP1005 CTX-M-14
Description: as §1

[8] = tested on: KP1008 Klebsiella pneumoniae KPC-2; conditions: KP1008 KPC-2
Description: as §1

[9] = tested on: EC1008 Escherichia coli CTX-M3
Description: as §1

[10] = tested on: ECL1002 Enterobacter cloacae Hyper AmpC expression
Description: as §1

[11] = tested on: EC1012 Escherichia coli TEM-12; conditions: EC1012 TEM-12
Description: as §1

[12] = tested on: EC1007 Escherichia coli KPC-3; conditions: EC1007 KPC-3
Description: as §1

[13] = tested on: EC1004 Escherichia coli CMY-2; conditions: EC1004 CMY-2
Description: as §1

[14] = tested on: ec307 Escherichia coli SHV-4; conditions: ec307 SHV-4
Description: as §1

[15] = tested on: ec302 Escherichia coli TEM-10; conditions: ec302 TEM-10
Description: as §1

[16] = tested on: AB1057 Acinetobacter baumannii OXA-58; conditions: AB1057 OXA-58
Description: as §1

[17] = tested on: EC1014 Escherichia coli DHA-1; conditions: EC1014 DHA-1
Description: as §1

[18] = tested on: PAM2035 Pseudomonas aeruginosa ampC mexA:tet
Description: as §1

[19] = tested on: ec310 Escherichia coli ACT-1; conditions: ec310 ACT-1
Description: as §1

[20] = tested on: pa1063 Pseudomonas aeruginosa GES-1; conditions: pa1063 GES-1
Description: as §1

[21] = tested on: EC1006 Escherichia coli FOX-5; conditions: EC1006 FOX-5
Description: as §1

[22] = tested on: KP1010 Klebsiella pneumoniae SHV-12; conditions: KP1010 SHV-12
Description: as §1

[23] = tested on: ec308 Escherichia coli SHV-5; conditions: ec308 SHV-5
Description: as §1

[24] = tested on: EC1011 Escherichia coli TEM-26; conditions: EC1011 TEM-26
Description: as §1

[25] = tested on: ec301 Escherichia coli TEM-6; conditions: ec301 TEM-6
Description: as §1

[26] = tested on: KP1009 Klebsiella pneumoniae CTX-M-15; conditions: KP1009 CTX-M-15
Description: as §1

[27] = tested on: KP1007 Klebsiella pneumoniae OXA-10; conditions: KP1007 OXA-10
Description: as §1

[28] = tested on: KP1004 Klebsiella pneumoniae KPC-2; conditions: KP1004 KPC-2
Description: as §1

[29] = tested on: EC1009 Escherichia coli TEM-10; conditions: EC1009 TEM-10
Description: as §1

[30] = tested on: ec309 Escherichia coli MIR-1; conditions: ec309 MIR-1
Description: as §1

[31] = tested on: ec306 Escherichia coli SHV-2; conditions: ec306 SHV-2
Description: as §1

[32] = Pseudomonas aeruginosa, read-out: Ceftazidime MIC Alone
[33] = Escherichia coli, read-out: Ceftazidime MIC Alone
[34] = Acinetobacter baumannii, read-out: Ceftazidime MIC Alone
[35] = Klebsiella pneumoniae, read-out: Ceftazidime MIC Alone

CC(C)(O/N=C(\C(=O)N[C@@H]1C(=O)N2C(C(=O)[O-])=C(C[n+]3ccccc3)CS[C@H]12)c1csc(N)n1)C(=O)O [Ceftazidime, reference compound]
MIC [1, 32]: > 8 µg/mL | MIC [2, 33]: > 8 µg/mL | MIC [3, 33]: > 8 µg/mL | MIC [4, 33]: > 8 µg/mL | MIC [5, 34]: > 8 µg/mL | MIC ([6]; Klebsiella oxytoca, read-out: Ceftazidime MIC Alone): > 8 µg/mL | MIC [7, 35]: > 8 µg/mL | MIC [8, 35]: 1 to 8 µg/mL | MIC [9, 33]: > 8 µg/mL | MIC ([10]; Enterobacter cloacae, read-out: Ceftazidime MIC Alone): > 8 µg/mL | MIC [11, 33]: > 8 µg/mL | MIC [12, 33]: > 8 µg/mL | MIC [13, 33]: > 8 µg/mL | MIC [14, 33]: > 8 µg/mL | MIC [15, 33]: > 8 µg/mL | MIC [16, 34]: > 8 µg/mL | MIC [17, 33]: > 8 µg/mL | MIC [18, 32]: > 8 µg/mL | MIC [19, 33]: > 8 µg/mL | MIC [20, 32]: > 8 µg/mL | MIC [21, 33]: > 8 µg/mL | MIC [22, 35]: > 8 µg/mL | MIC [23, 33]: > 8 µg/mL | MIC [24, 33]: > 8 µg/mL | MIC [25, 33]: > 8 µg/mL | MIC [26, 35]: > 8 µg/mL | MIC [27, 35]: > 8 µg/mL | MIC [28, 35]: > 8 µg/mL | MIC [29, 33]: > 8 µg/mL | MIC [30, 33]: > 8 µg/mL | MIC [31, 33]: > 8 µg/mL

CC(=O)N[C@H]1CCC(CC(=O)O)OB1O (stereo partly drawn) [Compound 3, 2-((3R)-3-acetamido-2-hydroxy-1,2-oxaborinan-6-yl)acetic acid]
Ceftazidime MIC with cyclic boronic acid ester derivative ([1]; derivative at 10 μg/mL): Z (MIC of greater than 8 μg/mL) | Ceftazidime MIC with cyclic boronic acid ester derivative ([2]; derivative at 10 μg/mL): Z (MIC of greater than 8 μg/mL) | Ceftazidime MIC with cyclic boronic acid ester derivative ([3]; derivative at 10 μg/mL): Z (MIC of greater than 8 μg/mL) | Ceftazidime MIC with cyclic boronic acid ester derivative ([4]; derivative at 10 μg/mL): Z (MIC of greater than 8 μg/mL) | Ceftazidime MIC with cyclic boronic acid ester derivative ([5]; derivative at 10 μg/mL): Z (MIC of greater than 8 μg/mL) | Ceftazidime MIC with cyclic boronic acid ester derivative ([6]; derivative at 10 μg/mL): Z (MIC of greater than 8 μg/mL) | Ceftazidime MIC with cyclic boronic acid ester derivative ([7]; derivative at 10 μg/mL): Z (MIC of greater than 8 μg/mL) | Ceftazidime MIC with cyclic boronic acid ester derivative ([8]; derivative at 10 μg/mL): X (MIC of 1 μg/mL or less) | Ceftazidime MIC with cyclic boronic acid ester derivative ([9]; derivative at 10 μg/mL): Y (MIC of greater than 1 μg/mL to 8 μg/mL) | Ceftazidime MIC with cyclic boronic acid ester derivative ([10]; derivative at 10 μg/mL): Z (MIC of greater than 8 μg/mL) | Ceftazidime MIC with cyclic boronic acid ester derivative ([11]; derivative at 10 μg/mL): Z (MIC of greater than 8 μg/mL) | Ceftazidime MIC with cyclic boronic acid ester derivative ([12]; derivative at 10 μg/mL): X (MIC of 1 μg/mL or less) | Ceftazidime MIC with cyclic boronic acid ester derivative ([13]; derivative at 10 μg/mL): Y (MIC of greater than 1 μg/mL to 8 μg/mL) | Ceftazidime MIC with cyclic boronic acid ester derivative ([14]; derivative at 10 μg/mL): Z (MIC of greater than 8 μg/mL) | Ceftazidime MIC with cyclic boronic acid ester derivative ([15]; derivative at 10 μg/mL): Z (MIC of greater than 8 μg/mL) | Ceftazidime MIC with cyclic boronic acid ester derivative ([16]; derivative at 10 μg/mL): Z (MIC of greater than 8 μg/mL) | Ceftazidime MIC with cyclic boronic acid ester derivative ([17]; derivative at 10 μg/mL): Y (MIC of greater than 1 μg/mL to 8 μg/mL) | Ceftazidime MIC with cyclic boronic acid ester derivative ([18]; derivative at 10 μg/mL): Z (MIC of greater than 8 μg/mL) | Ceftazidime MIC with cyclic boronic acid ester derivative ([19]; derivative at 10 μg/mL): Y (MIC of greater than 1 μg/mL to 8 μg/mL) | Ceftazidime MIC with cyclic boronic acid ester derivative ([20]; derivative at 10 μg/mL): Z (MIC of greater than 8 μg/mL) | Ceftazidime MIC with cyclic boronic acid ester derivative ([21]; derivative at 10 μg/mL): Y (MIC of greater than 1 μg/mL to 8 μg/mL) | Ceftazidime MIC with cyclic boronic acid ester derivative ([22]; derivative at 10 μg/mL): Z (MIC of greater than 8 μg/mL) | Ceftazidime MIC with cyclic boronic acid ester derivative ([23]; derivative at 10 μg/mL): Z (MIC of greater than 8 μg/mL) | Ceftazidime MIC with cyclic boronic acid ester derivative ([24]; derivative at 10 μg/mL): Z (MIC of greater than 8 μg/mL) | Ceftazidime MIC with cyclic boronic acid ester derivative ([25]; derivative at 10 μg/mL): Z (MIC of greater than 8 μg/mL) | Ceftazidime MIC with cyclic boronic acid ester derivative ([26]; derivative at 10 μg/mL): Z (MIC of greater than 8 μg/mL) | Ceftazidime MIC with cyclic boronic acid ester derivative ([27]; derivative at 10 μg/mL): Z (MIC of greater than 8 μg/mL) | Ceftazidime MIC with cyclic boronic acid ester derivative ([28]; derivative at 10 μg/mL): Y (MIC of greater than 1 μg/mL to 8 μg/mL) | Ceftazidime MIC with cyclic boronic acid ester derivative ([29]; derivative at 10 μg/mL): Z (MIC of greater than 8 μg/mL) | Ceftazidime MIC with cyclic boronic acid ester derivative ([30]; derivative at 10 μg/mL): Y (MIC of greater than 1 μg/mL to 8 μg/mL) | Ceftazidime MIC with cyclic boronic acid ester derivative ([31]; derivative at 10 μg/mL): Z (MIC of greater than 8 μg/mL)

From US11090319B2, “Therapeutic uses of pharmaceutical compositions comprising cyclic boronic acid ester derivatives” (Melinta Subsidiary Corp., priority 2010, dated 2021)
